Test results published in patent publication US6849658B2, “Biaromatic compounds and pharmaceutical and cosmetic compositions comprising them” (Galderma Research & Development, priority 1997, dated 2005).

`COc1c(C(O)C#Cc2ccc(C(=O)O)cc2)cc(C(C)(C)C)cc1C(C)(C)C` (stereo not shown) [Example 18, 4-[3-(3,5-Di-tert-butyl-2-methoxyphenyl)-3-hydroxyprop-1-ynyl]benzoic Acid] gave a melting point of 208 to 209 °C.
In the case of `COCOc1c(C(O)C#Cc2ccc(C(=O)O)cc2)cc(C(C)(C)C)cc1C(C)(C)C` (stereo not shown) [Example 14, 4-[3-(3,5-Di-tert-butyl-2-(methoxymethoxy)phenyl)-3-hydroxyprop-1-ynyl]benzoic Acid], the melting point is reported as 197 °C.
With `COc1c(C(C#Cc2ccc(C(=O)O)cc2)OC)cc(C(C)(C)C)cc1C(C)(C)C` (stereo not shown) [Example 25, 4-[3-(3,5-Di-tert-butyl-2-methoxyphenyl)-3-methoxyprop-1-ynyl]benzoic Acid] the melting point was 162 to 164 °C.
For `COc1c(CC#Cc2ccc(C(=O)O)cc2)cc(-c2ccccc2)cc1C(C)(C)C` [Example 31, 4-[3-(5-tert-Butyl-4-methoxybiphenyl-3-yl)prop-1-ynyl]benzoic Acid], the melting point was 229 to 231 °C.
For `COc1c(C(O)C#Cc2ccc(C(=O)O)cc2)cc(-c2ccccc2)cc1C(C)(C)C` (stereo not shown) [Example 23, 4-[3-(5-tert-Butyl-4-methoxybiphenyl-3-yl)-3-hydroxyprop-1-ynyl]benzoic Acid], the melting point was 165 to 167 °C.
In the case of `CC1(C)CCC(C)(C)c2c(C(O)C#Cc3ccc(C(=O)O)cc3)cc(-c3ccccc3)cc21` (stereo not shown), the melting point is reported as 250 °C.
`COc1c(CC#Cc2ccc(C(=O)O)cc2)cc(C(C)(C)C)cc1C(C)(C)C` [Example 19, 4-[3-(3,5-Di-tert-butyl-2-methoxyphenyl)prop-1-ynyl]benzoic Acid] gave a melting point of 237 to 239 °C.
In the case of `CC1(C)CCSc2c(CC#Cc3ccc(C(=O)O)c(O)c3)cccc21` [Example 6, 2-Hydroxy-4-[3-(4,4-dimethylthiochroman-8-yl)prop-1-ynyl]benzoic Acid], the melting point is reported as 190 to 191 °C.
With `CCOC(=O)c1ccc(C#CCc2cc(C(C)(C)C)cc(C(C)(C)C)c2O)cc1` [Example 16, Ethyl 4-[3-(3,5-di-tert-butyl-2-hydroxyphenyl)prop-1-ynyl]benzoate] the melting point was 113 to 115 °C.
In the case of `CC1(C)CCSc2cccc(C(O)C#Cc3ccc(C(=O)O)cc3)c21` (stereo not shown) [Example 11, 4-[3-(4,4-Dimethylthiochroman-5-yl)-3-hydroxyprop-1-ynyl]benzoic Acid], the melting point is reported as 198 °C.
